Data set [1] relates to HBV. Description: Secretion of HBV viral particles from Hep G2.2.15 cells (Proteinase K/DNase method). It is filed as cell-based, Hepatitis B virus. Particulars: 4.5 mM, 7 days, Hep G2 2.2.15 cells, FIG. 3. The protocol: Virus secretion into the media was detected by a method that would differentiate between enveloped and un-enveloped DNA. Glucosidase inhibitors reduce the secretion of enveloped virus. Enveloped virus is resistant to Proteinase K/Dnase treatment; un-enveloped virus is not. (+) or (−) indicates the addition of DNase. See text for more details. From left to right: Untreated; 3TC (3.5 μM); […] (4.5 mM).
Inhibition of the ER a-glucosidases inhibits the secretion of enveloped HBV. The first glycan processing events are the removal of the terminal glucose residues in the ER by α-glucosidase I and II (FIG. 2). The α-glucosidase inhibitor N-butyldeoxynojirimycin (NB-DNJ) has been used to study the role of glucose processing in several proteins including human immunodeficiency virus (HIV-1) gp120 (Fisher et al., 1995) and the enzyme tyrosinase which is involved in melanin biosynthesis (Petrescu et al., 1996). […] Hep G2 2.2.15 cells were either left untreated or treated with 3TC (3.5 μM) or the glucosidase inhibitor NB-DNJ (4.5 mM) and 7 days latter the amount of enveloped virus detected in the culture medium by a method that would differentiate between enveloped and un-enveloped virus (Wei et al., 1997). This method realizes upon the resistance of enveloped HBV to limited Proteinse K treatment (Wei et al., 1997). […]

Another data set deals with WHV. Particulars: cited from earlier work.
Data set [2] concerns HBV. Particulars: chronic HBV patients; cited from earlier work.
The next data set has as its system HCV. Particulars: cited from earlier work.
A further data set relates to HBV M protein. The class given is cell-based. The conditions noted are these: for secretion of the M protein: indicated concentrations, three days, FIG. 4. The protocol: Hep G2 cells were transfected with an M only expression vector and the next day the cells divided equally into 6 well trays. Compound was added one day latter at the indicated concentrations and the media changed every two days. The presence of sub-viral particles in the medium was detected via the Abbott Diagnostics Auszyme Monoclonal Diagnostic Kit as per manufacture's directions. For Graph: Y-axis is the OD at 492. X-axis indicates the compounds or cells used in the assay.
Hep G2 cells transfected with the HBV M expression vector were treated with the glucosidase inhibitor NB-DNJ (4.5 mM and 6 days latter the amount of M protein associated with the culture medium (secreted) and the cells (retained) determined by ELISA. See text for more details. For graph: x-axis, Drug treatment and location of protein; for y-axis, % of HBV M protein as compared to untreated
Hep G2 cells were transfected with the M only expression vector and seeded as daughter flasks into 6 well trays. Following 4 days of treatment of glucosidase inhibitor (NB-DNJ (4.5 mM)), drug was either removed (in samples labels as —R) or left on as a control. Day 0 is the time in which drug was removed. […] Day 3 and Day 5 are days after drug removal. For Graph: Y-axis is the OD at 492. X-axis indicates the compounds or cells used in the assay. UN=untreated sample; Un-R is the untreated rebound sample; NB=N-butyl-DNJ; NB-R=N-butyl-DNJ rebound sample.
HBV M protein secretion is sensitive to glucosidase inhibition. Our previous work has determined that the secretion of HBV sub-viral particles containing the M protein was sensitive to glucosidase inhibition. (Mehta et al., 1997). That is, when Hep G2 2.215 cells were treated with the glucosidase inhibitor NB-DNJ, purified sub-viral particles appeared to lack the M protein. However, it was unclear if this was the result of the M protein's sensitivity to glucosidase inhibition or required some other viral factor. To test this hypothesis, an expression vector (pCMV-MS^−X) directs the expression of HBV M, but no other viral protein, was created. This “M only” expression vector was then used to determine if the M protein itself, in the absence of other viral functions, was sensitive to glucosidase inhibition. In addition, an expression vector, unable to express “M”, but able to express “S” was made on the same plasmid backbone as the “M” only vector, as was used as a control (pCMV-M^−SX). For these studies three imino sugars were used: N-butyl-DNJ, N-nonyl-DNJ and N-nonyl-DGJ. N-butyl-DNJ is our standard glucosidase inhibitor and has been used by several labs for over 10 years (Carlson et al.,1995, Block et al., 1994). […] Briefly, Hep G2 cells were transfected with the expression vectors pCMV HBV MS^−X and pCMV HBV M^−SX and subsequently seeded into fresh 6 well trays. The transfected cells were treated with the indicated concentrations of NB-DNJ, NN-DNJ or NN-DGJ (as a negative control) and three days latter the media analyzed for the presence of the HBV M or HBV S protein as described in Mehta et al, 2001. […] Fore example, concentrations of NN-DNJ which have no impact upon glycan inhibition, as determined by glycan analysis or α-1-acid-glycoprotein secretion, had no effect upon HBV M protein secretion (data not shown). In contrast to the effect of the glucosidase inhibitors on M protein secretion, the secretion of the HBV S protein was insensitive to either NB-DNJ or NN-DNJ providing further proof that the S protein is insensitive to glucosidase inhibition (data not shown; Block et al., 1994, Mehta et al., 1997, Werr & Prange, 1998). To determine if the secretion of the HBV M protein was prevented by another non-glucosidase mechanism, other compounds with the same alkyl side chain (tail) but altered imino sugar head groups, were synthesized. For example, NN-DGJ has the same chain length as NN-DNJ but is not a glucosidase inhibitor. […]

Another data set concerns glucosidase. The data set can be described thus: Glucosidase / glycan processing inhibition in cells. It is filed as cell-based.
Data set [3] concerns bovine viral diarrhea virus (BVDV). The data set can be described thus: BVDV in mammalian cells in tissue culture. The class given is cell-based. From the text: We have discovered that cytotoxicity resulting from exposure of mammalian cells in tissue culture to bovine viral diarrhea virus (BVDV) is prevented by addition of a glucosidase inhibitor to the tissue culture medium. The glucosidase inhibitors useful according to the present invention include, but are not limited to a derivative of 1,5-dideoxy-1,5-imino-D-glucitol (DNJ), in particular, N-butyl-DNJ (NBDNJ). […] Because BVDV is an accepted tissue culture model of hepatitis C virus (HCV) (Henzler, H.-J. and K. Kaiser (1998) Nature Biotech 16:1077-1078), the compositions and methods described herein for inhibiting morphogenesis of BVDV are also useful for inhibiting morphogenesis of HCV.
The substituents on the basic 1,5-dideoxy-1,5-imino-D-glucitol can influence the potency of the compound as an antiviral agent and additionally can preferentially target the molecule to one organ rather than another. […] Methods for comparing the potencies of various substituted compounds are provided in Example 1. […] Methods for determining preferential targeting properties of variously substituted DNJs is provided in Example 8 and FIG. 8 in U.S. Pat. No. 6,465,487.

The test system of data set [4] is HBV. The conditions noted are these: cited from earlier work.
A further data set has as its system HIV. The conditions noted are these: relative to cells not exposed; cited from earlier work.
Data set [5] deals with bovine viral diarrhea virus (BVDV). The conditions noted are these: comparison of N-butyl and N-nonyl DNJ; U.S. Pat. No. 6,465,487; cited from earlier work.

For `OC[C@H]1NC[C@H](O)[C@@H](O)[C@@H]1O` [DNJ, 1,5-dideoxy-1,5-imino-D-glucitol], the “secretion of enveloped virus versus un-enveloped virus” value with HBV [1] was “inhibits the secretion of enveloped virus more effectively than un-enveloped virus”.

For the compound `Cc1cn([C@H]2O[C@@H](CO)[C@H](O)[C@H]2F)c(=O)[nH]c1=O` [L-FMAU, 1-(2-Fluro-5-Methy-B-L-Arabinofuranosyl)-Uracil], the “decrease in the amount of serum WHsAg” value with WHV (long term treatment) is listed as 10 fold. Besides, the immune responses developed entry in the data set with WHV (woodchucks, drug alone) is “limited cellular and humoral immune responses”.

On to Alpha-interferon, for which the “treated patients achieving certain serological milestones” value in the data set on HBV [2] is 7-40%. Besides, the “patients with long-term improvement” value in the data set with HCV is on record as 5%.

Turning to `CCCCN1C[C@H](O)[C@@H](O)[C@H](O)[C@H]1CO` [NB-DNJ, N-butyl-1,5-dideoxy-1,5-imino-D-glucitol], in the data set on HBV M protein (4.5 mM, 4 days, FIG. 6), the “amount of M protein in the culture medium after 4 days of treatment” value is reported as “substantial decrease”. Besides, in the data set on HBV M protein (4.5 mM, 6 days, ELISA, FIG. 5), the “HBV M protein associated with the cells (retained)” value is “retention of the HBV M protein” and the “HBV M protein associated with the culture medium (secreted)” value was “reduction in the amount of HBV M protein associated with the culture medium”. Besides, the “level of M protein in the culture medium after compound removal” value with HBV M protein (after 4 days treatment, drug removed, FIG. 6) is on record as “remained depressed until the 5th day”. In the data set with HBV M protein, the “secretion of the M protein” value is “prevented the secretion of the M protein”. The “M protein secretion at lower concentrations” value with HBV M protein (lower concentrations, which inhibit lower levels of glucosidase) was “able to inhibit M protein secretion”. The “effect on cell number or viability” value in the data set on HBV M protein (sustained reduction experiment, data not shown) is on record as “not due to an effect on cell number or viability”. Moreover, the “time to return of glucosidase enzyme function after removal of inhibitor” value with glucosidase (not shown or Tan et al, 1994) is given as “less than 3 hours”. The “toxicity toward host cells” value in data set [3] (conditions inhibiting BVDV-induced cytotoxicity) is on record as “little, if any, toxicity”. Besides, the BVDV-induced cytotoxicity result in data set [3] (tissue culture) was “inhibition of BVDV-induced cytotoxicity was achieved”. In the data set with HBV [4] (Hep G2.2.15 cells), the “secretion of HBV viral particles” value is “prevents the secretion of HBV viral particles”. For the same compound, in the data set with HBV [4] (stable transfected HepG2 cells), the “egress of subviral particles” value is given as “does not prevent egress” and the “egress of the mature HBV virion” value was “prevents egress”. The “infectivity of virus particles released from HIV-infected cells” value in the data set on HIV is on record as “greatly reduced”. Also, the “potency in inhibiting the intracellular production of BVDV virus” value in data set [5] is given as “less potent”.

On to `CCCCCCCCCN1C[C@H](O)[C@@H](O)[C@@H](O)[C@H]1CO` [NN-DGJ, reference compound], for which the “secretion of the M protein” value in the data set with HBV M protein is given as “but not NN-DGJ which does not inhibit glucosidase, reduces the amount of M detected in the medium”. Further, in the data set on glucosidase (negative control), the “glucosidase inhibition” value is “does not inhibit glucosidase”.

(Values after patent US20050053625A1, “Method of treating viral infections” (priority 2001, published 2005).)
